Test results reported in publication PMC3438226 (Bioorganic & medicinal chemistry, 2012).

Assays:
[1] = target: T1, human MTAP (Homo sapiens, UniProt Q13126); assay: Inhibition of phosphorolysis of MTA catalysed by human MTAP; format: biochemical
T1 sequence (Q13126 1-283): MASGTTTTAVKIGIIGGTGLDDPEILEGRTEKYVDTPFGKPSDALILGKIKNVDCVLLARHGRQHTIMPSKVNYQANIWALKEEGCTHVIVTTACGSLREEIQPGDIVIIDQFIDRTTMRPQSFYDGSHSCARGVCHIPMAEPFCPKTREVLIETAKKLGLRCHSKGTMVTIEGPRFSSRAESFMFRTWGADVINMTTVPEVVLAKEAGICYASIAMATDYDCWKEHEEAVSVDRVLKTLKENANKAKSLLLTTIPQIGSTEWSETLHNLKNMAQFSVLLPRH

[2] = target: T2, E. coli MTAN (Escherichia coli, UniProt P0AF12); format: biochemical
T2 sequence (P0AF12 whole entry): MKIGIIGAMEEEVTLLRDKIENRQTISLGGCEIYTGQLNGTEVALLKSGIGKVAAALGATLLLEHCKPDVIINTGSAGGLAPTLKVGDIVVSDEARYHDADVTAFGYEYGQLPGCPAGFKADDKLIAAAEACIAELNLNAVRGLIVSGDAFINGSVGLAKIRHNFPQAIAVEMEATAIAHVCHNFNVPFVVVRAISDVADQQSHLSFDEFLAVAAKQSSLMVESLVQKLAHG

[3] = target: T3, N. meningitidis MTAN (Neisseria meningitidis, UniProt Q9K054); assay: Inhibition of hydrolysis of MTA catalysed by N. meningitidis MTAN; format: biochemical
[4] = target: T2, E. coli MTAN; settings: read-out: Ki* E. coli MTAN; Ki* value; cited from earlier work
[5] = target: T3, N. meningitidis MTAN; settings: read-out: Ki* N. men. MTAN; Ki* value; cited from earlier work

## CSC[C@H](O)[C@@H](CO)CN(C)Cc1c[nH]c2c(N)ncnc12 (racemic) [(±)-72]
[1]
  reduction in binding affinity relative to (±)-68: ~9 fold
[2]; E. coli MTAN
  gain in binding affinity relative to (±)-68: ~6 fold
[3]; N. meningitidis MTAN
  reduction in binding affinity relative to (±)-68: approximately 2 fold

## CSC[C@@H](O)[C@@H](CO)NCc1c[nH]c2c(N)ncnc12 [Compound 33]
[2]; E. coli MTAN
  times weaker inhibitor than 17 I: about 4 fold

## (1S)-1-(9-deazaadenin-9-yl)-1,4-dideoxy-1,4-imino-5-methylthio-D-ribitol [Compound 3]
[4]
  Ki: 0.08 ± 0.02 nM
[5]
  Ki: 0.36 nM

## CSC[C@H](CO)N[C@H](CO)c1c[nH]c2c(N)ncnc12 [Compound 79]
[2]; E. coli MTAN, cleavage of 2,3 C-C bond of 3
  loss of activity relative to 3: 21,500 fold

## CSC[C@H](O)[C@@H](O)CN(C)Cc1c[nH]c2c(N)ncnc12 (racemic) [(±)-78]
[1]
  loss in activity relative to (±)-72: ~4 fold
[2]; bacterial MTANs (E. coli)
  increase in potency relative to (±)-72: approximately 2 fold
[3]; bacterial MTANs (N. meningitidis)
  increase in potency relative to (±)-72: approximately 2 fold

## CSC[C@@H](O)CNCc1c[nH]c2c(N)ncnc12 [Compound 54]
[2]; E. coli MTAN
  drop in binding affinity relative to (±)-25: ~110 fold

## CSC[C@@H](CN(C)Cc1c[nH]c2c(N)ncnc12)[C@@H](O)CO (racemic) [(±)-68]
[1]; N-methylation
  improvement of inhibition relative to (±)-65: about 3 fold
[2]; E. coli MTAN, N-methylation
  loss of binding affinity relative to (±)-65: 250 fold
[3]; N. meningitidis MTAN, N-methylation
  loss in activity relative to (±)-65: ~12 fold

## CSCC(CO)CNCc1c[nH]c2c(N)ncnc12 (racemic) [(±)-25]
[1]
  weaker binding affinity compared with 4: approximately 110 fold
[2]; E. coli MTAN
  times weaker inhibitor than 17 I: 1.5 fold
  weaker binding affinity compared with 4: ~180 fold
[3]; N. meningitidis MTAN
  difference in binding affinity compared with 4: 9 fold
